Reference: PMC2077808 (2007)
Values belong to the compound of their own block, whether it stands above or below them.

What was measured:
[1] = tested on: ATP-ASAP (DNA, aptamer, single rA at cleavage site in DNA substrate, flanked by fluorescein-dT and DABCYL-dT) CTTCGGAGGAGAACCATAGTCGGGGGAGAAGATGTGTCCGTGCTATGGTTCGA; experiment: fluorescence enhancement kinetics, MgZ DNAzyme cleavage sensor; details: 20 mM MgCl2; 50 mM HEPES pH 7.0, 0.001% Tween-20, room temperature; highest tested 1 mM
[2] = tested on: ADP-ASAP (DNA:RNA, aptamer, RNA aptamer with all-DNA 30-nt antisense element; single rA in DNA substrate flanked by fluorescein-dT and DABCYL-dT) GGAGACGAGGGGTCGAACCGTAGCCCGAAGGTAGGAAGAGTGCCCCGGACAAUCAGACACGGUCUCCACTCTTCCTAGCTATGGTTCGATCAAGA; experiment: as above; details: 20 mM MgCl2
[3] = tested on: ADP-ASAP (DNA:RNA, aptamer, RNA aptamer with all-DNA 30-nt antisense element; single rA in DNA substrate flanked by fluorescein-dT and DABCYL-dT) GGAGACGAGGGGTCGAACCGTAGCCCGAAGGTAGGAAGAGTGCCCCGGACAAUCAGACACGGUCUCCACTCTTCCTAGCTATGGTTCGATCAAGA; experiment: initial rate of fluorescence enhancement, MgZ DNAzyme cleavage sensor; details: 20 mM MgCl2, 50 mM HEPES pH 7.0, 0.001% Tween-20, room temperature, 5 nM ASAP, 1 µM MgZ
[4] = tested on: ATP-ASAP (DNA, aptamer, single rA at cleavage site in DNA substrate, flanked by fluorescein-dT and DABCYL-dT) CTTCGGAGGAGAACCATAGTCGGGGGAGAAGATGTGTCCGTGCTATGGTTCGA; experiment: as above; details: 20 mM MgCl2, 50 mM HEPES pH 7.0, 0.001% Tween-20, room temperature, 5 nM ASAP, 50 nM MgZ
[5] = 50 mM HEPES pH 7.0, 0.001% Tween-20, room temperature, highest tested 1 mM

- binding [1]: no
SMILES: Nc1nc2c(ncn2[C@@H]2O[C@H](COP(=O)(O)OP(=O)(O)OP(=O)(O)O)[C@@H](O)[C@H]2O)c(=O)[nH]1

- binding [2, 5]: no
SMILES: Nc1ncnc2c1ncn2[C@@H]1O[C@H](CO)[C@@H](O)[C@H]1O

- binding [2, 5]: no
SMILES: Nc1ncnc2c1ncn2[C@@H]1O[C@H](COP(=O)(O)O)[C@@H](O)[C@H]1O

- apparent K d [3]: 35 ± 3 µM
SMILES: Nc1ncnc2c1ncn2[C@@H]1O[C@H](COP(=O)(O)OP(=O)(O)O)[C@@H](O)[C@H]1O

- apparent K d [4]: 456 ± 47 µM
- binding ([2]; 50 mM HEPES pH 7.0, room temperature, no signal at 200 µM, signal at 300-1000 µM): weak
SMILES: Nc1ncnc2c1ncn2[C@@H]1O[C@H](COP(=O)(O)OP(=O)(O)OP(=O)(O)O)[C@@H](O)[C@H]1O
